Assay results published in patent US20080009511A1, “Cancer treatment with compounds inhibiting PKC alpha” (priority 2004, published 2008).

How the values were obtained:
[1] = system: A431 human epidermoid carcinoma cells; experiment: Cell viability assay (trypan blue dye exclusion), viable cells counted at day 6; assay type: cell-based; conditions: 10 micromoles; for Treated (cell number × 10^5): about 4×10^4 cells seeded, untreated 5.4 ± 0.4; for % inhibiton: growth vs untreated
Description: (§1) The following cancer cells were maintained in Dulbecco's modified Eagle medium (DMEM) supplemented with 10 percent bovine calf serum. Cells were seeded for 24 hours. Then they were treated with PKC inhibitors or left untreated. The cells were then collected periodically and evaluated using trypan blue dye exclusion to assess viability using the method described by C Y Chen, et al., in J. Biol. Chem. 273:16700-16709. Cultures containing about 4×10^4 cells were treated with 5 micromoles of Gö7874 (except that PC3 prostate cancer cells were treated with 10 micromoles) and the viable cells were counted at day 6. […] Cultures containing about 4×10^4 cells were treated with or without 10 micromoles of Gö6850 and the viable cells were counted at day 6. […] Cultures containing about 4×10^4 cells were treated with or without 10 micromoles of NGIC-I and the viable cells were counted at day 6. […] Cultures containing about 4×10^4 cells were treated with or without 10 micromoles of Ro31-7549 and the viable cells were counted at day 6. […] Cultures containing about 4×10^4 cells were treated with or without 10 micromoles of Ro31-8220 and the viable cells were counted at day 6. […] Cultures containing about 4×10^4 cells were treated with or without 10 micromoles of Ro31-8425 and the viable cells were counted at day 6. […] Cultures containing about 4×10^4 cells were treated with or without 10 micromoles of Ro31-0432 and the viable cells were counted at day 6.

[2] = system: NBT-II human bladder cancer cells; experiment: as above; assay type: cell-based; conditions: 10 micromoles; for Treated (cell number × 10^5): about 4×10^4 cells seeded, untreated 2.9 ± 0.4; for % inhibiton: growth vs untreated
Description: as §1

[3] = system: Hela human cervical cancer cells; experiment: as above; assay type: cell-based; conditions: 10 micromoles; for Treated (cell number × 10^5): about 4×10^4 cells seeded, untreated 3.4 ± 0.4; for % inhibiton: growth vs untreated
Description: as §1

[4] = system: PC3 human prostate cancer cells; experiment: as above; assay type: cell-based; conditions: 10 micromoles; for Treated (cell number × 10^5): about 4×10^4 cells seeded, untreated 7.1 ± 0.3; for % inhibiton: growth vs untreated
Description: as §1

[5] = system: H460 human lung cancer cells; experiment: as above; assay type: cell-based; conditions: 10 micromoles; for Treated (cell number × 10^5): about 4×10^4 cells seeded, untreated 2.4 ± 0.2; for % inhibiton: growth vs untreated
Description: as §1

[6] = system: HepG2 human liver cancer cells; experiment: as above; assay type: cell-based; conditions: 10 micromoles; for Treated (cell number × 10^5): about 4×10^4 cells seeded, untreated 4.2 ± 0.4; for % inhibiton: growth vs untreated
Description: as §1

[7] = system: AGS human gastric cancer cells; experiment: as above; assay type: cell-based; conditions: 10 micromoles; for Treated (cell number × 10^5): about 4×10^4 cells seeded, untreated 2.4 ± 0.3; for % inhibiton: growth vs untreated
Description: as §1

[8] = system: HT29 human colon cancer cells; experiment: as above; assay type: cell-based; conditions: 10 micromoles; for Treated (cell number × 10^5): about 4×10^4 cells seeded, untreated 3.8 ± 0.4; for % inhibiton: growth vs untreated
Description: as §1

[9] = system: Jurkat cells (a human acute T-cell leukemia cell line); experiment: as above; assay type: cell-based; conditions: 10 micromoles; for Treated (cell number × 10^5): about 4×10^4 cells seeded, untreated 8.8 ± 0.4; for % inhibiton: growth vs untreated
Description: as §1

[10] = system: MDA-MB-468 human breast cancer cells; experiment: as above; assay type: cell-based; conditions: 10 micromoles; for % inhibiton: growth vs untreated
Description: as §1

[11] = system: PANC-1 human pancreatic carcinoma cells; experiment: as above; assay type: cell-based; conditions: 10 micromoles; for Treated (cell number × 10^5): about 4×10^4 cells seeded, untreated 2.1 ± 0.3; for % inhibiton: growth vs untreated
Description: as §1

U251 human glioma cells = experiment: as above; assay type: cell-based; conditions: 10 micromoles; for Treated (cell number × 10^5): about 4×10^4 cells seeded, untreated 9.6 ± 0.5; for % inhibiton: growth vs untreated
Description: as §1

KB oral cancer cells = experiment: as above; assay type: cell-based, human; conditions: 10 micromoles; for Treated (cell number × 10^5): about 4×10^4 cells seeded, untreated 3.8 ± 0.4; for % inhibiton: growth vs untreated
Description: as §1

human cancer cells = experiment: Cell viability assay, summary over the panel of cancer cells; assay type: cell-based; conditions: 10 micromoles; day 6; cell lines not named as going to apoptosis
Description: The following cancer cells were maintained in Dulbecco's modified Eagle medium (DMEM) supplemented with 10 percent bovine calf serum. Cells were seeded for 24 hours. Then they were treated with PKC inhibitors or left untreated. The cells were then collected periodically and evaluated using trypan blue dye exclusion to assess viability using the method described by C Y Chen, et al., in J. Biol. Chem. 273:16700-16709. Cultures containing about 4×10^4 cells were treated with or without 10 micromoles of Gö6850 and the viable cells were counted at day 6. […] Cultures containing about 4×10^4 cells were treated with or without 10 micromoles of NGIC-I and the viable cells were counted at day 6. […] Cultures containing about 4×10^4 cells were treated with or without 10 micromoles of Ro31-7549 and the viable cells were counted at day 6. […] Cultures containing about 4×10^4 cells were treated with or without 10 micromoles of Ro31-8220 and the viable cells were counted at day 6. […] Cultures containing about 4×10^4 cells were treated with or without 10 micromoles of Ro31-8425 and the viable cells were counted at day 6. […] Cultures containing about 4×10^4 cells were treated with or without 10 micromoles of Ro31-0432 and the viable cells were counted at day 6.

Row | SMILES | Treated (cell number × 10^5) [1] | % inhibiton [1] [%] | Treated (cell number × 10^5) [2] | % inhibiton [2] [%] | Treated (cell number × 10^5) [3] | % inhibiton [3] | Treated (cell number × 10^5) [4] | % inhibiton [4] [%] | Treated (cell number × 10^5) [5] | % inhibiton [5] [%] | Treated (cell number × 10^5) [6] | % inhibiton [6] [%] | Treated (cell number × 10^5) [7] | % inhibiton [7] [%] | Treated (cell number × 10^5) [8] | % inhibiton [8] [%] | Treated (cell number × 10^5) [9] | % inhibiton [9] | % inhibiton [10] [%] | Treated (cell number × 10^5) [11] | further results
1 | CN(C)CCCn1cc(C2=C(c3c[nH]c4ccccc34)C(=O)NC2=O)c2ccccc21 [Gö6850, 2-[1-(3-Dimethylaminopropyl)-1H-indol-3-yl]-3-(1H-indol-3-yl)-maleimide] | 4.1 × 10^5 | 24 | 1.3 × 10^5 | 57 | 0.3 × 10^5 | * (indicates the inhibitor causes significant cell death, and cell number is less than originally seeded cell number.) | 2.8 × 10^5 | 60 | 1.6 × 10^5 | 31 | 2.4 × 10^5 | 41 | 1.5 × 10^5 | 34 | 2.4 × 10^5 | 22 | 4.1 × 10^5 | 53% | 25 | 1.4 × 10^5 | cell numbers of treated cells [3]: significantly reduced cell numbers; Treated (cell number × 10^5) ([10]; about 4×10^4 cells seeded, untreated 6.1 ± 0.4): 4.6 ± 0.2 × 10^5; % inhibiton [11]: 30%; Treated (cell number × 10^5) (U251 human glioma cells): 7.2 × 10^5; % inhibiton (U251 human glioma cells): 23%; Treated (cell number × 10^5) (KB oral cancer cells): 1.7 × 10^5; % inhibiton (KB oral cancer cells): 55%; inhibition of growth in contrast to untreated cells, range over the other treated cancer cells (human cancer cells): 25-60%
2 | N#CCCn1c2ccccc2c2c3c(c4c5ccccc5[nH]c4c21)C(=O)NC3 [NGIC-I, 12-propanenitrile,5,6,7,13-tetrahydro-5-oxo-12H-Indolo[2,3-a]pyrrolo[3,4-c]carbazole] | 2.7 × 10^5 | 49 | 0.9 × 10^5 | 73 | 0.3 × 10^5 | * (indicates the inhibitor causes significant cell death, and cell number is less than originally seeded cell number.) | 3.7 × 10^5 | 48 | 1.6 × 10^5 | 32 | 0.9 × 10^5 | 78 | 1.7 × 10^5 | 30 | 3.2 × 10^5 | 15 | 0.2 × 10^5 | * (indicates the inhibitor causes significant cell death, and cell number is less than originally seeded cell number.) | 78 | 1.2 × 10^5 | originally seeded cells survived [3]: 75%; originally seeded cells survived [9]: About 50%; % inhibiton [11]: 44%; Treated (cell number × 10^5) (U251 human glioma cells): 1.6 × 10^5; % inhibiton (U251 human glioma cells): 82%; cells that went to apoptosis upon treatment (KB oral cancer cells): all; Treated (cell number × 10^5) (KB oral cancer cells): 0 × 10^5; % inhibiton (KB oral cancer cells): * (indicates the inhibitor causes significant cell death, and cell number is less than originally seeded cell number.); inhibition of growth in contrast to untreated cells, range over the other treated cancer cells (human cancer cells): 25-82%
3 | CN(C)CC1CCn2c(c(C3=C(c4cn(C)c5ccccc45)C(=O)NC3=O)c3ccccc32)C1.Cl (centres unmarked) [Ro31-0432] | 4.2 × 10^5 | 21 | 2.3 × 10^5 | 19 | 1.3 × 10^5 | 60% | 6.0 × 10^5 | 15 | 1.3x ± × 10^5 | 48 | 2.4 × 10^5 | 43 | 1.7 × 10^5 | 30 | 3.0 × 10^5 | 19 | 1.4 × 10^5 | 81% | 30 | 1.2 ± 0.1 × 10^5 | % inhibiton [11]: 31%; Treated (cell number × 10^5) (U251 human glioma cells): 9.2 × 10^5; % inhibiton (U251 human glioma cells): 10%; Treated (cell number × 10^5) (KB oral cancer cells): 2.1 × 10^5; % inhibiton (KB oral cancer cells): 44%; inhibition of growth in contrast to untreated cells, range over the other treated cancer cells (human cancer cells): 10-60%
